Measured values as given in PubChem BioAssay (NCI).
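A five-concentration, 48-hour dose response in 96-well plates underlies each endpoint, interpolated linearly between surrounding concentrations. GI50 marks 50% less growth. TGI: concentration producing complete growth inhibition.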

Each molecule was assayed on TK-10 renal (assay: inhibition of tumour cell growth, NCI panel, 48 h).

Structure (SMILES)	TGI [µM]
COc1ccc(S(=O)(=O)c2nnc(S(=O)(=O)Cc3ccccc3)s2)cc1	39.6
O=[N+]([O-])c1ccc2c(c1)C1=C(CO2)Cc2ccccc2O1	57
NC(=O)C12CC3CC(CC(F)(C3)C1)C2	> 100
Cc1c(N=Nc2ccc(Cl)cc2)c(-c2ccccc2)n(C2OC(CO)C(O)C(O)C2O)c(=S)c1C#N (stereo not given)	44.4
CC(=O)Oc1c2c(c(O)c3ccccc13)C(n1cnc3c(ncn3C3OC(CO)C4OC(C)(C)OC43)c1=N)CCC2 (stereo not given)	35.9
N#Cc1c(N)n(-c2cccc(C(=O)O)c2)c(=O)c2cc([N+](=O)[O-])ccc12	> 100
CN(C)CCC(=O)c1ccccc1	> 68.4
CCOc1ccccc1NC(=O)C(=O)CC(=O)c1sc(Nc2nnc(-c3ccc(Cl)c(Cl)c3)o2)nc1C	> 100

These molecules were tested on UO-31 renal (assay: inhibition of tumour cell growth, NCI panel, 48 h).

Structure (SMILES)	GI50 [µM]	TGI [µM]
O=c1cc(-c2cccc3ccccc23)[nH]c2ncccc12	0.0741	> 100
COC(=O)c1ccccc1/C=C1\Cc2ccc(C)c(C)c2C1=O		> 100
COc1cc(C2c3cc4c(cc3OC3(OC)COC(=O)C23)OCO4)cc(OC)c1OC(C)=O (stereo not given)		> 100
CN1CCOC(c2ccccc2)O1 (stereo not given)		> 100
O=C(/C=C/c1cc2ccccc2o1)N1CCN(c2ccccn2)CC1		> 100
CCCNC(=S)NNC(=O)CSc1nc(-c2ccccc2)c(-c2ccccc2)[nH]1		> 100
CC(=O)c1sc(Nc2nnc(-c3ccc(-c4nnc(Nc5nc(C)c(C(C)=O)s5)o4)cc3)o2)nc1C		> 10
CC1c2c(Cl)nc3ccccc3c2Oc2c1c(Cl)nc1ccccc21		> 100
COC1(OC)C(N(C)C)=C(Cl)C(=O)/C1=C/C=O		> 100
OC1C#CCSCC#C/C=C\1 (stereo not given)		> 100
CC(=O)Oc1ccc2c(C)cc(=O)oc2c1OC(C)=O		76.9
N#Cc1c2ccccc2cn1-c1ccc(F)cc1		39.6
Cc1ccccc1N1C(=O)C2C=CC(n3[nH]c(=O)n(Cc4ccccc4)c3=O)CC2C1=O (stereo not given)		> 100
CN(CC(=O)O)c1ncc2c(n1)CCCC2		> 100
COc1ccc(/C=C2\N=C(SC)N(CN3CCOCC3)C2=O)cc1		> 100
O=C(Nc1nc(C23CC4CC(CC(C4)C2)C3)cs1)c1cc2ccc(O)cc2oc1=O		31.2
O=C1C(c2c(O)[nH]c3ccc(F)cc23)=Nc2ccccc21		> 100
CCOC(=O)c1nnc2c(C(=O)OCC)c3ccccc3n2c1N		> 100

Structure (SMILES)	GI50 [µM]	TGI [µM]
S=c1sc2c(Cl)nc(Cl)nc2n1-c1ccccc1		> 100
CC12CC(c3ccccc3O1)C(C(=O)Nc1ccc(Cl)cc1Cl)C(=O)N2 (stereo not given)		37.7
CCC(C)OC(=O)/C(Br)=C1/OC(=O)c2ccccc2-c2ccccc21 (stereo not given)		73
NC(=O)C(C(N)=O)=C(O)C(=O)/C=C(\O)c1ccccc1		> 100
Cn1ccc(C(=O)NCCN(CCNC(=O)c2ccn(C)c(=O)c2O)CCNC(=O)c2cccc(=O)n2O)c(O)c1=O		> 100
COC(=O)c1cc2ccc(N)nc2[nH]c1=O		> 100
Cc1cc(S(=O)(=O)Nc2n[nH]c(N)n2)c(SCC(=O)O)cc1Cl		> 10
NNC(=O)c1n[nH]nc1C(=O)NN		41.8
CC(C)(C)OC(=O)[C@H]1CCC(=S)N1Cc1ccccc1		> 100
COc1ccc(S(=O)(=O)c2nnc(S(=O)(=O)Cc3ccccc3)s2)cc1		43.4
O=[N+]([O-])c1ccc2c(c1)C1=C(CO2)Cc2ccccc2O1		28.1
NC(=O)C12CC3CC(CC(F)(C3)C1)C2		> 100
O=c1c(/C=C/c2c(O)ccc3ccccc23)nnc2sc(-c3cccc(Br)c3)nn12		69.6
Cc1c(N=Nc2ccc(Cl)cc2)c(-c2ccccc2)n(C2OC(CO)C(O)C(O)C2O)c(=S)c1C#N (stereo not given)		34.2
CC(=O)Oc1c2c(c(O)c3ccccc13)C(n1cnc3c(ncn3C3OC(CO)C4OC(C)(C)OC43)c1=N)CCC2 (stereo not given)		29.8
N#Cc1c(N)n(-c2cccc(C(=O)O)c2)c(=O)c2cc([N+](=O)[O-])ccc12		> 100
CN(C)CCC(=O)c1ccccc1		> 68.8
CCOc1ccccc1NC(=O)C(=O)CC(=O)c1sc(Nc2nnc(-c3ccc(Cl)c(Cl)c3)o2)nc1C		> 100

What follows are molecules tested on CAKI-1 renal (assay: inhibition of tumour cell growth, NCI panel, 48 h).

Structure (SMILES)	TGI [µM]
O=c1cc(-c2cccc3ccccc23)[nH]c2ncccc12	> 100
COC(=O)c1ccccc1/C=C1\Cc2ccc(C)c(C)c2C1=O	> 100
COc1cc(C2c3cc4c(cc3OC3(OC)COC(=O)C23)OCO4)cc(OC)c1OC(C)=O (stereo not given)	> 100
CN1CCOC(c2ccccc2)O1 (stereo not given)	> 100
O=C(/C=C/c1cc2ccccc2o1)N1CCN(c2ccccn2)CC1	> 100
CCCNC(=S)NNC(=O)CSc1nc(-c2ccccc2)c(-c2ccccc2)[nH]1	94.6
CC(=O)c1sc(Nc2nnc(-c3ccc(-c4nnc(Nc5nc(C)c(C(C)=O)s5)o4)cc3)o2)nc1C	> 10
COC1(OC)C(N(C)C)=C(Cl)C(=O)/C1=C/C=O	> 100
N#Cc1c2ccccc2cn1-c1ccc(F)cc1	> 100
Cc1ccccc1N1C(=O)C2C=CC(n3[nH]c(=O)n(Cc4ccccc4)c3=O)CC2C1=O (stereo not given)	> 100
